{"source": "paper PMC5917093", "about": "“Brain Transport Profiles of Ginsenoside Rb1 by Glucose Transporter 1: In Vitro and in Vivo” (Frontiers in Pharmacology, 2018)", "key": {"[1]": {"system": "GLUT3", "assay": "Western blot, GLUT3 expression in rBMEC", "type": "cell-based, rat", "settings": "phloretin 5 μM together with Rb1 60 μg/mL", "description": "(§1) Total proteins were extracted and 60 μg of each protein was separated on SDS-10% polyacrylamide gels. Proteins on the gel were transferred to PVDF membrane (Merck-Millipore). Blots were blocked with 5% skimmed milk dissolved in PBS containing 0.1% Tween-20 (PBST) for 2 h at room temperature. The membrane was incubated with primary antibody at 4°C overnight. Washing of the blots with PBST three times was followed by incubation with horseradish peroxidase-conjugated secondary antibody for 2 h at room temperature. After washing, the chemiluminescence signal was monitored using the ChemiDoc XRS+ system (Bio-Rad, Hercules, CA, United States). Densitometric semi-quantitative analysis of protein bands was carried out using Image J."}, "[2]": {"system": "rBMEC (primary cultured rat brain microvascular endothelial cells)", "assay": "Transporter inhibition assays: Rb1 uptake into rBMEC in presence of inhibitors", "type": "in vitro ADME", "settings": "Rb1 60 μg/mL, 37°C; for effect on Rb1 uptake into rBMEC versus control: 120 min", "description": "In the present study, the uptake at 120 min was selected to measure the effect of test agents on the transport characteristics of Rb1. Rb1 concentration was set to be 60 μg/mL. The rBMEC was seeded out in 6-well plates, allowed to adhere, and grown to confluency. To study the transport mechanisms, uptake of Rb1 was carried out in the presence of a metabolic energy inhibitor and a series of established transporter inhibitors. The impact of these inhibitors on Rb1 uptake by rBMEC was assessed at the steady state at 37°C. NaN3 (500 μM), probenecid (100 μM), CsA (25, 50, and 100 μM), or phloretin (5 μM) was added to inhibit different transport systems. In the inhibition study, to further assess the effect of phloretin on Rb1 uptake into rBMEC, the cells were incubated at 37°C at a set time (5, 15, 30, 60, and 120 min). Uptake was measured after incubation with Rb1 in the presence of phloretin at the concentration of 5 μM.\nHPLC–MS/MS was composed by a Shimadzu LC-20A chromatographic system and an API 4000 mass spectrometer equipped with electrospray ionization (ESI) source system. MS/MS detection was performed on an API 4000 mass spectrometer using multiple reaction monitoring (MRM) mode by monitoring the fragmentation of m/z 1107.6 → 179.0 for Rb1 and m/z 779.4 → 345.2 for digoxin (IS). Chromatographic separations were carried out on a Shim-pack XD-ODS column (2.0 mm × 30 mm, 2.2 μm) with a Shim-pack GVD-ODS (2.0 mm × 5 mm, 4.6 μm) guard column (Shimadzu, Japan) at a flow rate of 0.28 mL/min using 10 mM acetic acid in water (phase A) and methanol (phase B) as mobile phase. A linear step gradient elution was performed as followed: phase B was increased from 45 to 90% within the first 3 min, and decreased to 45% within the next 3 min (total gradient time: 6 min). A 10 μL sample was injected into the system with the auto-sample conditioned at 4°C and column temperature maintained at 40°C.\nThe biological samples (100 μL) were placed in a 1.5 mL Eppendorf tube, and mixed with 10 μL IS solution (500 ng/mL) for 3 min by vortexing. The mixture was extracted with methanol (0.9 mL) by vortexing, and then centrifuged at 14,000 rpm for 5 min. The supernatant (0.8 mL) was transferred to a new 1.5 mL Eppendorf tube and evaporated to dryness under vacuum. The dried residue was reconstituted with 100 μL methanol, vortex-mixed for 30 s, and centrifuged at 14,000 rpm for 5 min. Finally, 10 μL of the supernatant liquid was immediately subjected to HPLC–MS/MS analysis. The system control and data analysis were performed by AB Sciex Analyst software (the software version: Analyst 1.5.1)."}, "[3]": {"system": "rBMEC", "assay": "Cell viability assessment, CCK-8 assay", "settings": "37°C, 4 h", "experimental": "The cytotoxic effects of the test agents used in this study were assessed on confluent monolayers of cells in 96-well plates using a CCK-8 assay. Cells were subjected to a 200 μL/well of each drug in Hanks’ solution at the concentrations used in the experiments, followed by incubation for another 4 h. Then, 10 μL Cell Counting Kit-8 (CCK8, Dojindo) solution was added to each well. Plates were incubated for additional 4 h. Absorbance readings at 450 nm were obtained using a spectrophotometer (Thermo Varioskan) and expressed as percentage viability compared to control untreated cells."}, "[4]": {"system": "GLUT1", "assay": "Western blot, GLUT1 expression in normal rat brain", "type": "in vivo", "settings": "phloretin 5 mg/kg i.v. for 1 week, P < 0.05", "description": "Rats were randomly divided into two groups in 36 of each group. One group served as the control and another group were treated with phloretin. Dose of phloretin was set to be 5 mg/kg. Rb1 (10 mg/kg, i.v.) was administered to the experimental rats after i.v. administration of phloretin or saline for consecutive 1 week. Six rats from each group were selected and the blood samples were collected into heparinized Eppendorf tubes via the abdominal aorta at 0.5, 2, and 6 h after Rb1 administration. Then, brain samples were immediately collected. The plasma samples were obtained by centrifuging at 1000 × g for 10 min. Plasma and brain samples were frozen at -80°C until analysis. Total proteins were extracted and 60 μg of each protein was separated on SDS-10% polyacrylamide gels. Proteins on the gel were transferred to PVDF membrane (Merck-Millipore). Blots were blocked with 5% skimmed milk dissolved in PBS containing 0.1% Tween-20 (PBST) for 2 h at room temperature. The membrane was incubated with primary antibody at 4°C overnight. […] After washing, the chemiluminescence signal was monitored using the ChemiDoc XRS+ system (Bio-Rad, Hercules, CA, United States). Densitometric semi-quantitative analysis of protein bands was carried out using Image J."}, "[5]": {"system": "GLUT1", "assay": "Western blot, GLUT1 expression in rBMEC", "type": "cell-based, rat", "settings": "phloretin 5 μM together with Rb1 60 μg/mL; at 30, 60 and 120 min", "description": "as §1"}, "[6]": {"target": "T1, GLUT1 (Rattus norvegicus, UniProt P11167)", "T1 construct": "GLUT1, as the major GLUT isoform expressed in brain endothelial cells; endogenous in cells; host or cells: primary cultured rat brain microvascular endothelial cells (rBMEC)", "T1 sequence (P11167 1-492)": "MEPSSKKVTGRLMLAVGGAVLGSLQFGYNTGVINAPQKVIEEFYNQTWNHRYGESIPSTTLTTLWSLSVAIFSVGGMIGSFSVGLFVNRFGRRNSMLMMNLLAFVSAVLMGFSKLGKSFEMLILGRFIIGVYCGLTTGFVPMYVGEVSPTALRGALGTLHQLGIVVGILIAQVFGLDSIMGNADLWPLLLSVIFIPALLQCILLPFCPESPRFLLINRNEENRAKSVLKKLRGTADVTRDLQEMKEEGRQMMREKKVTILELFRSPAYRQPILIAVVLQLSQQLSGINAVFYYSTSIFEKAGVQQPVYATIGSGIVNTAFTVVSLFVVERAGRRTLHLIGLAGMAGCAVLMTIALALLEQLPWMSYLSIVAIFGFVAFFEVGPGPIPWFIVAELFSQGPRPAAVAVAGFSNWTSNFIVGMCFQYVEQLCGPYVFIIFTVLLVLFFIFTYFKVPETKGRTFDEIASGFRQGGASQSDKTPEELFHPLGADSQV", "assay": "Competitive inhibition of Rb1 uptake by rBMEC by D-glucose (Lineweaver-Burk plot)", "type": "in vitro ADME", "settings": "100 mM D-glucose, Rb1 30-960 μg/mL, 37°C, 120 min", "description": "In the competition experiments, Rb1 uptake (30–960 μg/mL) was measured in the absence and presence of D-glucose (100 mM) which is a principal physiological substrate of GLUT1. Briefly, cells were grown in 6-well plates for 7 days before their medium was removed, pre-incubated with warm glucose-free Hanks’ solution for 30 min. Subsequently, samples and controls were treated as described transport studies, but this time in addition with 100 mM D-glucose to the various concentrations of Rb1 in glucose-free Hanks’ solution at 37°C for 120 min."}, "[7]": {"target": "GLUT1", "set-up": "method as in Burant and Bell, 1992", "settings": "ref Burant and Bell, 1992; read-out: Ki of GLUT1 for glucose; cited from earlier work"}, "[8]": {"set-up": "method as in Li et al., 2007", "settings": "rats, TPNS injection 10.0 mg/kg intravenous; ref Li et al., 2007; cited from earlier work"}}}
{"smiles": "O=C(CCc1ccc(O)cc1)c1c(O)cc(O)cc1O", "note": "[phloretin]", "values": [{"measurement": "expression level of GLUT3 in rBMEC versus control", "setting": "[1]", "result": "no significant difference"}, {"measurement": "effect on cell-to-medium (C/M) ratio of Rb1, time course", "setting": "[2]; phloretin 5 μM, 5-120 min, especially from min 30 to 120", "result": "significantly decreased"}, {"measurement": "effect on Rb1 uptake into rBMEC versus control", "setting": "[2]; phloretin 5 μM, P < 0.01", "result": "significant decrease"}, {"measurement": "viability of rBMEC versus control (CCK-8)", "setting": "[3]; phloretin 5 μM", "result": "no statistically significant differences"}, {"measurement": "expression level of GLUT1 in brain versus untreated normal rats", "setting": "[4]", "result": "significantly decreased"}, {"measurement": "expression level of GLUT1 in rBMEC versus control", "setting": "[5]", "result": "significantly lower"}]}
{"smiles": "OC[C@H]1OC(O)[C@H](O)[C@@H](O)[C@@H]1O", "note": "(stereo partly drawn) [D-glucose]", "values": [{"measurement": "Ki", "setting": "[6]", "result": 885, "unit": "µM"}, {"measurement": "Ki", "setting": "[7]", "result": "~1000", "unit": "µM"}]}
{"smiles": "C=C1[C@@H](C)[C@H]2[C@H](Cc3ccccc3)NC(=O)[C@]23OC(=O)/C=C/C(=O)CCC[C@@H](C)C/C=C/[C@H]3[C@@H]1O", "note": "[CsA, cytochalasin A]", "values": [{"measurement": "effect on Rb1 uptake into rBMEC versus control", "setting": "[2]; CsA 25, 50 and 100 μM", "result": "no statistically significant differences"}, {"measurement": "viability of rBMEC versus control (CCK-8)", "setting": "[3]; CsA 25, 50 and 100 μM", "result": "no statistically significant differences"}]}
{"smiles": "CCCN(CCC)S(=O)(=O)c1ccc(C(=O)O)cc1", "note": "[probenecid]", "values": [{"measurement": "effect on Rb1 uptake into rBMEC versus control", "setting": "[2]; probenecid 100 μM", "result": "no statistically significant differences"}, {"measurement": "viability of rBMEC versus control (CCK-8)", "setting": "[3]; probenecid 100 μM", "result": "no statistically significant differences"}]}
{"smiles": "CC(C)=CCC[C@](C)(O[C@@H]1O[C@H](CO)[C@@H](O)[C@H](O)[C@H]1O)[C@H]1CC[C@]2(C)[C@@H]1[C@H](O)C[C@@H]1[C@@]3(C)CC[C@H](O)C(C)(C)[C@@H]3[C@@H](O[C@@H]3O[C@H](CO)[C@@H](O)[C@H](O)[C@H]3O)C[C@]12C", "note": "[Rg1, ginsenoside Rg1]", "values": [{"measurement": "duration in brain tissue", "setting": "[8]", "result": "~1", "unit": "h"}, {"measurement": "largest content in brain tissue", "setting": "[8]", "result": "about 0.2 μg/g"}]}
{"smiles": "[N-]=[N+]=[N-].[Na+]", "note": "[NaN3, sodium azide]", "values": [{"measurement": "effect on Rb1 uptake into rBMEC versus control", "setting": "[2]; NaN3 500 μM", "result": "no statistically significant differences"}, {"measurement": "viability of rBMEC versus control (CCK-8)", "setting": "[3]; NaN3 500 μM", "result": "no statistically significant differences"}]}
